The target in test [1] is Casein kinase II subunit alpha' (Homo sapiens, UniProt P19784).
Test [2] addresses Tyrosine-protein kinase SYK (Homo sapiens, UniProt P43405).
Another test addresses LIM domain kinase 2 (Homo sapiens, UniProt P53671).
Test [3] deals with T1, Mitogen-activated protein kinase kinase kinase 3 (Homo sapiens, UniProt Q99759).
T1 sequence (Q99759 whole entry): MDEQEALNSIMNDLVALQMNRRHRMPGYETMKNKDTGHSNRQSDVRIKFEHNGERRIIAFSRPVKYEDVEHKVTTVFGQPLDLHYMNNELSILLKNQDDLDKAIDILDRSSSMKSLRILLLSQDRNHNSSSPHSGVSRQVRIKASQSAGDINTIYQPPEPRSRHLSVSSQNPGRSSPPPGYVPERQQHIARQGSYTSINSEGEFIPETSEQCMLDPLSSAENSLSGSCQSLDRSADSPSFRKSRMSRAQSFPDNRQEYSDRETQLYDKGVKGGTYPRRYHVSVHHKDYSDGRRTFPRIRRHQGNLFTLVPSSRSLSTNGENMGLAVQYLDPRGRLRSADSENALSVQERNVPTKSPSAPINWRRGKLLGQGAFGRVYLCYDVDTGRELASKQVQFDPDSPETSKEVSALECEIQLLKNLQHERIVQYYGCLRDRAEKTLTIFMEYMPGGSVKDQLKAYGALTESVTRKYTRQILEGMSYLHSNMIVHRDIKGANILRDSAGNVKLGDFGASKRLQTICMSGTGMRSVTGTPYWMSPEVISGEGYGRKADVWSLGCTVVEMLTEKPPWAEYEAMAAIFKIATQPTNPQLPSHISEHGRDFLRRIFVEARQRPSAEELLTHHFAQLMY

Another test deals with Actin-related protein 2 (Homo sapiens, UniProt P61160).
Test [4] has as its target MAP/microtubule affinity-regulating kinase 3 (Homo sapiens, UniProt P27448).
Test [5] has as its target Dual specificity mitogen-activated protein kinase kinase 1 (Homo sapiens, UniProt Q02750).
Test [6] has as its target Tyrosine-protein kinase Lyn (Homo sapiens, UniProt P07948).
In test [7] the target is T2, Serine/threonine-protein kinase D3 (Homo sapiens, UniProt O94806).
T2 sequence (O94806 whole entry): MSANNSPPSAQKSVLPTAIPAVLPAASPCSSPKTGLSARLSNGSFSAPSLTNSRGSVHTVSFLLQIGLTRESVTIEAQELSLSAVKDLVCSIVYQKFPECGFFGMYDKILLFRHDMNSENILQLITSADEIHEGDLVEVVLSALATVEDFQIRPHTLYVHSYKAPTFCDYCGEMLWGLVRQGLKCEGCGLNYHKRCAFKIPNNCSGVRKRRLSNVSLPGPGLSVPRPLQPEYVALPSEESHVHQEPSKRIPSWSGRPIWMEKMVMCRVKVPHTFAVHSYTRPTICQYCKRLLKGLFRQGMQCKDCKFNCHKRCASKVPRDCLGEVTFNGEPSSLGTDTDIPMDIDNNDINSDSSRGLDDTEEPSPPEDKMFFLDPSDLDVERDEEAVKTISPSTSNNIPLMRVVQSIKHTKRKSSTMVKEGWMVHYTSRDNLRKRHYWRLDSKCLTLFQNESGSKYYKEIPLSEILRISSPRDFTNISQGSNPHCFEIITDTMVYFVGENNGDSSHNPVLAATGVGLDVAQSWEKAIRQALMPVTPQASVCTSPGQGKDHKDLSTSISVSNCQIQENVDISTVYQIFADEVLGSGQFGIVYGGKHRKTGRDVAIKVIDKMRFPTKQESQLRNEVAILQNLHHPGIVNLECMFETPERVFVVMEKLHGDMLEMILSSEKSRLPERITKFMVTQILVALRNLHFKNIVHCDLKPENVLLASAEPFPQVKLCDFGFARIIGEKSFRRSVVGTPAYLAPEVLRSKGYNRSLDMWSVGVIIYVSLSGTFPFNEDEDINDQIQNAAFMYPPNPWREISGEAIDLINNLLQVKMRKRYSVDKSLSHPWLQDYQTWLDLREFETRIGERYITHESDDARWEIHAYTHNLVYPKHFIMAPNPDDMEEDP

Test [8] concerns the target T3, Dual specificity mitogen-activated protein kinase kinase 6 (Homo sapiens, UniProt P52564).
T3 sequence (P52564 whole entry): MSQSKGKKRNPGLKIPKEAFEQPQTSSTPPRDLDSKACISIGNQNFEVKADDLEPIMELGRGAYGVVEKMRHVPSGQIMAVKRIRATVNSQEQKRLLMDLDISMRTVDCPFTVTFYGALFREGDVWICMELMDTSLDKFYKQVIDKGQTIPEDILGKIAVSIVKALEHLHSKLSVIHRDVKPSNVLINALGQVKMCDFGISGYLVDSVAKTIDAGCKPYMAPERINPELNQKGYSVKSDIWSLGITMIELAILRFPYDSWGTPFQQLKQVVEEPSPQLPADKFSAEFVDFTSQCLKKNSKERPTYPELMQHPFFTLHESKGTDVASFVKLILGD

For test [9], the target named is Ribosomal protein S6 kinase alpha-5 (Homo sapiens, UniProt O75582).
Test [10] concerns the target Ribosomal protein S6 kinase beta-1 (Homo sapiens, UniProt P23443).
Test [11] deals with Maternal embryonic leucine zipper kinase (Homo sapiens, UniProt Q14680).

pKd: −log10 of the molar value. Activity calls are given as the source filed them. Rule as the data show it, for most assays here: actives have a measured Kd and inactives only a lower limit.
Also: in the data inactive means no Kd found up to 30 µM.

Sequence of Tyrosine-protein kinase Lyn (P07948 whole entry): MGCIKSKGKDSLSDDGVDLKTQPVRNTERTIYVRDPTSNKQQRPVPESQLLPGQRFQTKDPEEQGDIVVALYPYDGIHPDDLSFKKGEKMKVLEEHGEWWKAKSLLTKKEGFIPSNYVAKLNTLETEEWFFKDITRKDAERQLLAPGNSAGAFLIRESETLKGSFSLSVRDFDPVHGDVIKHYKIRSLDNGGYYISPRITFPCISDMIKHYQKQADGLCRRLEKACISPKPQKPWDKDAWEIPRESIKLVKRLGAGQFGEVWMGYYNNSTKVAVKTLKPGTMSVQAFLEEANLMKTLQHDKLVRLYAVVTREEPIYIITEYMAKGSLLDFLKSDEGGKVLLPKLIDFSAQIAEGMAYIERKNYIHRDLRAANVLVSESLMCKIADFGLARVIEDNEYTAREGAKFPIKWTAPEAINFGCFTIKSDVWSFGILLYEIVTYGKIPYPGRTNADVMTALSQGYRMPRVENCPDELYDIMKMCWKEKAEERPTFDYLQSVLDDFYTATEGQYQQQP
Sequence of Maternal embryonic leucine zipper kinase (Q14680 whole entry): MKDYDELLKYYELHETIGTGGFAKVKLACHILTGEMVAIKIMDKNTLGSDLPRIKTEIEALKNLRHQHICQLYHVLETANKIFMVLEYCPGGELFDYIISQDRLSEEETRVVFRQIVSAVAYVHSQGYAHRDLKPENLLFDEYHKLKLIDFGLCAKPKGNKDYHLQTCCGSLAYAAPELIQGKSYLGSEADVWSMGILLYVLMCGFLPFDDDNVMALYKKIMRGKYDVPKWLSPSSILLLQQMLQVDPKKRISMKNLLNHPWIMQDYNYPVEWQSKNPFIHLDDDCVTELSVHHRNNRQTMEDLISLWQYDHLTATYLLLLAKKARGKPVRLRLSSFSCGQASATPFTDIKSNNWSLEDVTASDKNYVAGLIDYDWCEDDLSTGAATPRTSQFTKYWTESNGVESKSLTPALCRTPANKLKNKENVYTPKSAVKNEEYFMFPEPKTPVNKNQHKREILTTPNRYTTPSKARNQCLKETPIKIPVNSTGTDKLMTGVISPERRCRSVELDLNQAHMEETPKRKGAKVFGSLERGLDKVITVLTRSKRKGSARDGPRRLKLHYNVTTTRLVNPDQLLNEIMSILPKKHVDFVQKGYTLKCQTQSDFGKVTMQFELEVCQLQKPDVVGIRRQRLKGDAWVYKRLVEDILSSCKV
Sequence of Ribosomal protein S6 kinase alpha-5 (O75582 whole entry): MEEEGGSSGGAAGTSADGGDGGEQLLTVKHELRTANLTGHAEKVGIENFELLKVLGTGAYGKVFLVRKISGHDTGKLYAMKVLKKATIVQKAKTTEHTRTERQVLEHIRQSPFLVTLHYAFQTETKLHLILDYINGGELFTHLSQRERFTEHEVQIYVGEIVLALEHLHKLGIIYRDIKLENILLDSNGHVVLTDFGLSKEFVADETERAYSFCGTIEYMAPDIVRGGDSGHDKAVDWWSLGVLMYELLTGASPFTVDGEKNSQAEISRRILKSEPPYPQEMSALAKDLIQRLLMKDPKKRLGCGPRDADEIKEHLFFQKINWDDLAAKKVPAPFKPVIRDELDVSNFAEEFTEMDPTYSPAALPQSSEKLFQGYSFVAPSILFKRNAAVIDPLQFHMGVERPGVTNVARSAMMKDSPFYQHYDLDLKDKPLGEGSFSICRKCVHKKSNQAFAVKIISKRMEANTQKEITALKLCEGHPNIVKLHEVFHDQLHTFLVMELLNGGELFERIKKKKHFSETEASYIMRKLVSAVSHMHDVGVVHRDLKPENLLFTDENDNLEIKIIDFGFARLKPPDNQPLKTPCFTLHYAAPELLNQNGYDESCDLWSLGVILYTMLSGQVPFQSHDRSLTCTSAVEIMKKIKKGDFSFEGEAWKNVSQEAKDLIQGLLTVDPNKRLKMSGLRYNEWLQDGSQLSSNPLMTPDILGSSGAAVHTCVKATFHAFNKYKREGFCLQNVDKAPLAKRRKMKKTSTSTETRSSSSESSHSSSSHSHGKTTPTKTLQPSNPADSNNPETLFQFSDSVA
Sequence of MAP/microtubule affinity-regulating kinase 3 (P27448 whole entry): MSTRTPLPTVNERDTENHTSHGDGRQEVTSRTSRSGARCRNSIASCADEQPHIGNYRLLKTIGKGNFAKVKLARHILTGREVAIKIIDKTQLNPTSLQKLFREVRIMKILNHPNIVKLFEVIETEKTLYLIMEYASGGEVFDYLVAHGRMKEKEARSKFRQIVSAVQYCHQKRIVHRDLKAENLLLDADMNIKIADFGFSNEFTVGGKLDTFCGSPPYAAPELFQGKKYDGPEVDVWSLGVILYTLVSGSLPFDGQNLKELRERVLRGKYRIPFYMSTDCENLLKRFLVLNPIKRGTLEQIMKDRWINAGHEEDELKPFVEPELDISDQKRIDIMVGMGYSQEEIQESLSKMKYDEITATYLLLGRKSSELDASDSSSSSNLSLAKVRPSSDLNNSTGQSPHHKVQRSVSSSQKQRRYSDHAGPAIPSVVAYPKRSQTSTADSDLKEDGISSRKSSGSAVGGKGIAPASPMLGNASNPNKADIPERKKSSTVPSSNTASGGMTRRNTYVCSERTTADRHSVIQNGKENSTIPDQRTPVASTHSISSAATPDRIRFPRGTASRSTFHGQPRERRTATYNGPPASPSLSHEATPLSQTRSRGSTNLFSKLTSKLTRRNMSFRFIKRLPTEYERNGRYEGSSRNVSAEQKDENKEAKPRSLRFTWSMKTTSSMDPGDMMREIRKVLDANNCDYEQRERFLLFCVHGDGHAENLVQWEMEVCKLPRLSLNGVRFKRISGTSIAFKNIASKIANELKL
Sequence of Casein kinase II subunit alpha' (P19784 whole entry): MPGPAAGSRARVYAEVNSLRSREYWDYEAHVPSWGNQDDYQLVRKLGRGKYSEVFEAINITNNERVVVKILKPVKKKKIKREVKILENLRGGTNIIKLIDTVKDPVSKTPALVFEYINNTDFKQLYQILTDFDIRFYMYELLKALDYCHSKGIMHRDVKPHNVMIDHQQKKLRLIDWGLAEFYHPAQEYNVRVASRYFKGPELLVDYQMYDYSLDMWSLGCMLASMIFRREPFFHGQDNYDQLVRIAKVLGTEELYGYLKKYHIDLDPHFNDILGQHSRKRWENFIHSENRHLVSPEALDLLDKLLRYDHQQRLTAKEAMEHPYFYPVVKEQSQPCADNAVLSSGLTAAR
Sequence of Ribosomal protein S6 kinase beta-1 (P23443 whole entry): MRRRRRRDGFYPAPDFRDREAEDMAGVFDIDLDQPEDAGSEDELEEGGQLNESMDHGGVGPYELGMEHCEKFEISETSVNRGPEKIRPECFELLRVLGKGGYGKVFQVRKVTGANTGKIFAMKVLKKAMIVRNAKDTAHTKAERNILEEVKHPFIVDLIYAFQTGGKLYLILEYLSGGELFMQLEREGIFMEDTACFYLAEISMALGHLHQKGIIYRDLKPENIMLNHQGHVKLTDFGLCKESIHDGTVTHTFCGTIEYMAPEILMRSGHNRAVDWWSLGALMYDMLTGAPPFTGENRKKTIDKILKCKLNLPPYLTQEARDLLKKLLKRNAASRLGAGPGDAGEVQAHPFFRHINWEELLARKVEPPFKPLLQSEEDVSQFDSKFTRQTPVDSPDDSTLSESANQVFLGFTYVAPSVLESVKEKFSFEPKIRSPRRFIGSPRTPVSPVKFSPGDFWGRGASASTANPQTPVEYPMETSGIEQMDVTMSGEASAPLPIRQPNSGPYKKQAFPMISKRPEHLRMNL
Sequence of Dual specificity mitogen-activated protein kinase kinase 1 (Q02750 whole entry): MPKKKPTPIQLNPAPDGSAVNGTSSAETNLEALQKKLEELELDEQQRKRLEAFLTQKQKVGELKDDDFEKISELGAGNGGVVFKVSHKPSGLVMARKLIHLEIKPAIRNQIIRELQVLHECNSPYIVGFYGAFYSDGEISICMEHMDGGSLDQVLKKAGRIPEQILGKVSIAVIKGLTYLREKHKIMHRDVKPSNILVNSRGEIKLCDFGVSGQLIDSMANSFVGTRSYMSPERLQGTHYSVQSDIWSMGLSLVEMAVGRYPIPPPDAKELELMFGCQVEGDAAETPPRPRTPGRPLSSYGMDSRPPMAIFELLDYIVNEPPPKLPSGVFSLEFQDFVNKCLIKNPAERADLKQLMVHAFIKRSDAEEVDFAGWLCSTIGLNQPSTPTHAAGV
Sequence of LIM domain kinase 2 (P53671 whole entry, the tested form may be a part): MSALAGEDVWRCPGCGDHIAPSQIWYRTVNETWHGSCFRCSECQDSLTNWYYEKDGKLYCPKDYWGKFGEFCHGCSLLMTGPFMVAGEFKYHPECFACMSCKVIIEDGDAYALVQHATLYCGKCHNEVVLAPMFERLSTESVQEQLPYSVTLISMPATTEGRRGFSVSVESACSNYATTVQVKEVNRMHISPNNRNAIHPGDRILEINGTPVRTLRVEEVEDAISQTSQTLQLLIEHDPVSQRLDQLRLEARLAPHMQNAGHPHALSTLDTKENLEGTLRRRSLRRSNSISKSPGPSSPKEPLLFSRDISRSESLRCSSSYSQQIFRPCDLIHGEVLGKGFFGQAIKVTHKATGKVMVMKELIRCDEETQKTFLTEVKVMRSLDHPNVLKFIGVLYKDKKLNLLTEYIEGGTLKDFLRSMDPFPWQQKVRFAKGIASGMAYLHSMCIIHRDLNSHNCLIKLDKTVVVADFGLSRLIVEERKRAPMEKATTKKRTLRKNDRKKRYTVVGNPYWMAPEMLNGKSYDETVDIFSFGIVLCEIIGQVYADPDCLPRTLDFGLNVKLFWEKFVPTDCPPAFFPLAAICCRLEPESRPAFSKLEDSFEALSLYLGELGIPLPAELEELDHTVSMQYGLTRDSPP

For the compound `COc1cc(CCc2cc(NC(=O)c3ccc(N4C[C@@H](C)N[C@@H](C)C4)cc3)n[nH]2)cc(OC)c1` [AZD-4547], the Kd (usually the constant that tells how readily two partners part at equilibrium) in test [1] is > 30 µM (inactive); in test [2], > 30 µM (inactive); at LIM domain kinase 2, > 30 µM (inactive); in test [3], > 30 µM (inactive); on Actin-related protein 2 it was > 30 µM (inactive); in test [4], 9.02 µM (active). Besides, the Kd in test [5], in test [6], in test [7], in test [8], in test [9] and in [10] was > 30 µM (inactive) in each case. Moreover, the Kd in test [11] was > 30 µM (inactive).

On to `C[C@@H]1CN(Cc2ccc(F)cc2)[C@@H](C)CN1C(=O)c1cc2c(C(=O)C(=O)N(C)C)cn(C)c2cc1Cl` [TALMAPIMOD], for which the Kd (in test [1]; in test [2]; at LIM domain kinase 2; in test [3]; in test [4]; in [5]) was > 30 µM (inactive) each time. Besides, the Kd in test [6], in test [7], in [8], in test [9], in test [10] and in test [11] was > 30 µM (inactive) throughout. In addition, the negative logarithm of the Kd (pKd) (commonly the Kd on a negative log10 scale, so that one unit is a factor of ten) on Actin-related protein 2 was 8.40.

For `CCS(=O)(=O)N1CC(CC#N)(n2cc(-c3ncnc4[nH]ccc34)cn2)C1` [BARICITINIB], the Kd was > 30 µM (inactive) in [1]; > 30 µM (inactive) in test [2]; > 30 µM (inactive) on LIM domain kinase 2; > 30 µM (inactive) in test [3]; > 30 µM (inactive) at Actin-related protein 2; 0.104 µM (active) in test [4]. Moreover, the Kd in test [5], in test [6], in [7], in test [8], in test [9] and in test [10] was > 30 µM (inactive) each time. Further, in test [11], the Kd is > 30 µM (inactive).

Take `COc1ccc(-c2ccc3c(N4CCOC[C@@H]4C)nc(N4CCOC[C@@H]4C)nc3n2)cc1CO` [AZD-8055]: the Kd (in test [1]; in test [2]; at LIM domain kinase 2; in [3]; at Actin-related protein 2; in [4]) was > 30 µM (inactive) in each case. Also, the Kd in [5], in test [6], in test [7], in test [8], in [9] and in [10] was > 30 µM (inactive) in each case. Besides, in test [11], the Kd was > 30 µM (inactive).

As for `CN1CC[C@@H](c2c(O)cc(O)c3c(=O)cc(-c4ccccc4Cl)oc23)[C@@H]1CO`, the Kd (in test [1]; in [2]; on LIM domain kinase 2; in test [3]; at Actin-related protein 2; in [4]) was > 30 µM (inactive) in each case. For the same compound, the Kd in [5] is > 30 µM (inactive); in test [6], > 30 µM (inactive); in test [7] it was 2.54 µM (active); in test [8], > 30 µM (inactive); in [9], > 30 µM (inactive); in [10], > 30 µM (inactive). Also, the Kd in [11] was > 30 µM (inactive).

In the case of `Cn1cc(-c2ccc3nnc(C(F)(F)c4ccc5ncccc5c4)n3n2)cn1` [JNJ-38877605], the Kd (in test [1]; in test [2]; on LIM domain kinase 2; in test [3]; on Actin-related protein 2; in test [4]) was > 30 µM (inactive) in each case. The Kd in test [5], in test [6], in test [7], in [8], in test [9] and in [10] was > 30 µM (inactive) in each case. For the same compound, the Kd in test [11] was > 30 µM (inactive).

As to `Cc1ccc(-n2nc(C(C)(C)C)cc2NC(=O)NCc2cc(F)ccc2Oc2ccc3c(cnn3CCO)c2)cc1` [PEXMETINIB], the Kd (in test [1]; in test [2]; on LIM domain kinase 2; in [3]; at Actin-related protein 2; in [4]) was > 30 µM (inactive) in each case. The Kd in test [5] was > 30 µM (inactive); in test [6], 2.5 µM (active); in test [7] it was > 30 µM (inactive); in test [8], > 30 µM (inactive); in test [9] it was > 30 µM (inactive); in test [10] it was > 30 µM (inactive). In addition, the Kd in test [11] is > 30 µM (inactive).

Consider `Cc1c(F)cc(C(=O)NC2CC2)cc1-c1ccc(C(=O)NCC(C)(C)C)cn1` [LOSMAPIMOD], for which the Kd (in [1]; in test [2]; at LIM domain kinase 2; in test [3]; on Actin-related protein 2; in [4]) was > 30 µM (inactive) throughout. Moreover, the Kd in test [5], in test [6], in test [7], in test [8], in test [9] and in test [10] was > 30 µM (inactive) throughout. Moreover, the Kd in test [11] was > 30 µM (inactive).

`CNC(=O)c1ccc(C)c(-n2c(C)cc(OCc3ccc(F)cc3F)c(Br)c2=O)c1` [PH-797804]: the Kd (in [1]; in test [2]; on LIM domain kinase 2; in [3]; on Actin-related protein 2; in test [4]) was > 30 µM (inactive) in each case. Also, the Kd in [5], in test [6], in test [7], in test [8], in test [9] and in [10] was > 30 µM (inactive) throughout. In addition, the Kd in [11] was > 30 µM (inactive).

The values are drawn from ChEMBL document CHEMBL3991601, “The target landscape of clinical kinase drugs” (Science, 2017).
